Four compounds from US20260256924A1, “INDOCYANINE GREEN (ICG) MODIFICATION FOR TREATMENT OF LIVER CANCER” (The Children's Medical Center Corporation, priority 2022, published 2026) can be followed below.

Entries after “also recorded” stand apart in the source; their conditions may differ.

Data set [1] in a line: [18F]SFB-ICG stability by HPLC (RCP). The data set is classed as physicochemical. The protocol: FIGS. 11A-11B show HPLC traces of [^18F]SFB-ICG stability at 1 hour, and 2 hours.
Data set [2] can be described thus: In vivo biodistribution of 18F-SFB-ICG in wild type mice by whole body PET/CT. The arrangement: species or system female C57BL/6 mice. On the procedure: (§1) The study was comprised of female C57BL/6 mice (n=4, 20.4+0.8 g, age 12.9 weeks). The modalities were whole body PET/CT and whole blood gamma counting which were performed on the mice using the imaging agent ^18F-SFB-ICG as outlined in Table 1. Briefly, the mice were imaged in a 2-bed imaging hotel with imaging agent administered intravenously while animals were on camera (volume dosed was maintained constant to keep mass dose constant). 1 hour dynamic PET data was acquired, followed by CT. A static 30 minute PET dataset was acquired at 4 hours, also followed by CT. A blood sample was taken immediately following each imaging time point for gamma counting.
PET/CT: PET images were co-registered to CT images and resampled to uniform voxel size (0.2 mm^3). The injected activity doses were normalized to the averaged activity in the field of view (FOV) in the final 6 frames of the dynamic scan (FOV-based normalization). The Regions of Interest (ROIs) were defined using various methods in VivoQuant software: A fixed volume ellipsoidal ROI was placed in the center of the heart, to encompass a volume of representative concentration for that region. The fixed volume sphere ROIs were placed in the center of the lobes of the lungs (2), and throughout the spleen (3) to encompass a volume of representative concentration for those regions. Based on the CT and PET, the following organs were segmented as completely as possible: liver, gallbladder, small intestines, cecum, and large intestines. The activity concentration was reported as Standardized Uptake Value (SUV), equating to the […]. For fully segmented organs, uptake was also reported in percentage injected dose (% ID). FIGS. 17A-17D show resulting PET/CT images of a representative wild type mouse.

In the next data set the test system is Huh7 tumor cells. Kind of data set: In vivo fluorescence imaging following ICG administration in Huh7 xenograft mice. More on the design: species or system immunodeficient mice. As to conditions: 0.5 mg/kg ICG dose, FIG. 32. On the procedure: Other areas of high signal represents concentration within the intestinal lumen. Control mouse without tumor is shown on the left side.
Xenotransplantation of the following cell lines is performed: FLX1 (FLC), Huh-7 (HCC) and HepG2 (well-differentiated HCC) in immunodeficient mice. […] Therefore, the dose is escalated to an appropriate level. Even though the majority of the models use HCC cells, the findings are applicable to FLC since FLC also has the ability to retain ICG (FIGS. 31A-31D). Currently, there is only one readily available FLC cell line, which also has the property to be engrafted in an immunodeficient mouse model.

Another data set relates to FLC tumor tissue. Description: Gross and microscopic ICG localization in FLC patients (near-infrared fluorescence at surgery). Format: in vivo, patient. Conditions: intravenous ICG 48 hours prior to surgery, FIGS. 31A-31D. On the procedure:
ICG is administered several days prior to surgery, which subsequently is cleared from the blood and normal liver but is retained in tumor tissue. At the time of surgery, a near-infrared camera is used to identify ICG retaining tumor tissue since it fluoresces in response to near-infrared wave.^22,23 The use of ICG for localization of HCC and hepatoblastoma has been reported^16-18,21,22,30 however, there are no published reports regarding its use in FLC. […] The MDR3 transporter, which is responsible for export of ICG into the bile canaliculi is also expressed in tumor cells, albeit at lower levels.

Data set [3] can be described thus: Whole blood gamma counting after 18F-SFB-ICG injection. The data set is classed as in vivo, female C57BL/6 mice. As to conditions: FIG. 24B. On the procedure:
as §1
Gamma Counting: Whole blood samples were collected after each imaging session for ex vivo radioactivity analysis by gamma counting. Triplicates of ^18F-SFB-ICG were also counted to calculate an efficiency factor from which counts could be converted to units of activity (μCi). The sample activities were corrected for background radiation and decay-corrected to the injection time. The tissue volumes were estimated through measurement of sample weights, and blood activity was reported as % ID/g and SUV.

For the compound `CC1(C)C(/C=C/C=C/C=C/C=C2/N(CCCCCC(=O)NCCNC(=O)c3ccc([18F])cc3)c3ccc4ccccc4c3C2(C)C)=[N+](CCCCS(=O)(=O)[O-])c2ccc3ccccc3c21` [[^18F]SFB-ICG], the results for the “RCP (stability)” value in data set [1] (at 1 hour) and in data set [1] (at 2 hours) were 95% and 96%, respectively.

As for `CC1(C)C(/C=C/C=C/C=C/C=C2/N(CCCCCC(=O)NCCNC(=O)c3ccc([18F])cc3)c3ccc4ccccc4c3C2(C)C)=[N+](CCCCS(=O)(=O)[O-])c2ccc3ccccc3c21` [^18F-SFB-ICG], the tracer localization result in data set [2] (at 4 hours post injection) was “most intense signal is present within the lumen of the intestines”; in data set [2] (by 5 minutes post injection), “majority of the tracer is localized to the liver”. Further, the “PET signal in large intestines and cecum” value in data set [2] (time activity curves, FIGS. 18A-18B) is “not observed until the 4 hour time point”.

Turning to `CC1(C)C(/C=C/C=C/C=C/C=C2\N(CCCCS(=O)(=O)O)c3ccc4ccccc4c3C2(C)C)=[N+](CCCCS(=O)(=O)[O-])c2ccc3ccccc3c21` [ICG, indocyanine green], the “uptake by implanted Huh7 tumor cells” value in the data set with Huh7 tumor cells is recorded as “demonstrate uptake; also recorded: ICG uptake by Huh7 tumor cells”. For the same compound, the “ICG uptake/accumulation in FLC tumor tissue and metastases” value in the data set on FLC tumor tissue is “accumulation of ICG in metastatic tumor bed; also recorded: fluorescence (white) within tumor cells; also recorded: accumulates in FLC; also recorded: ICG uptake by tumor tissue in the liver as well as metastatic deposits”.

Regarding `CC1(C)C(/C=C/C=C/C=C/C=C2/N(CCCCCC(=O)NCCNC(=O)c3ccc([18F])cc3)c3ccc4ccccc4c3C2(C)C)=[N+](CCCCS(=O)(=O)[O-])c2ccc3ccccc3c21` [[^18F]ICG], in data set [2] (IV, wild-type mice), the “time to evidence of excretion of the tracer into the gallbladder via the biliary system” value was not above 20 min. In addition, the “time to evidence of the tracer in the lumen of the small intestine” value in data set [2] (IV, wild-type mice) is not above 45 min. In data set [2] (at 4 hours post injection), the “signal intensity in the liver” value is reported as “decreased significantly”. In addition, the tracer localization entry is “majority of the tracer is localized to the lumen of the intestines” in data set [2] (at 4 hours post injection); “predominantly localized to the liver” in data set [2] (by 5 minutes post injection); “localized to the heart and the major vessels” in data set [2] (time 0 post injection). Besides, the “percentage of injected dose localized to the cecum” value in data set [2] (cecum, at 4 hours, IV, wild-type mice) is on record as “approximately 30 % ID”. The “percentage of injected dose localized to the liver” value in data set [2] (by 10 minutes, IV, wild-type mice, FIG. 18B) is approximately 70%; in data set [2] (by 4 hours, IV, wild-type mice) it was “about 40 % ID”. For the same compound, the “uptake by other organs via the circulation” value in data set [2] (organs other than liver) was “no significant uptake by any other organs”. The “activity present in whole blood” value was 2-2.5 % ID in data set [3] (1 hour) and 1 % ID in data set [3] (4 hours).
